Values quoted from earlier work as cited in patent publication US20050090660A1, “2'-deoxy-L-nucleosides” (priority 1999, published 2005).

What was measured:
[1] = tested on: mitochondrial DNA synthesis and lactic acid production
polymerase γ = biological target: T1, polymerase γ (Homo sapiens, UniProt P54098); settings: polymerase responsible for mitochondrial DNA chain elongation
T1 sequence (P54098 1-1239): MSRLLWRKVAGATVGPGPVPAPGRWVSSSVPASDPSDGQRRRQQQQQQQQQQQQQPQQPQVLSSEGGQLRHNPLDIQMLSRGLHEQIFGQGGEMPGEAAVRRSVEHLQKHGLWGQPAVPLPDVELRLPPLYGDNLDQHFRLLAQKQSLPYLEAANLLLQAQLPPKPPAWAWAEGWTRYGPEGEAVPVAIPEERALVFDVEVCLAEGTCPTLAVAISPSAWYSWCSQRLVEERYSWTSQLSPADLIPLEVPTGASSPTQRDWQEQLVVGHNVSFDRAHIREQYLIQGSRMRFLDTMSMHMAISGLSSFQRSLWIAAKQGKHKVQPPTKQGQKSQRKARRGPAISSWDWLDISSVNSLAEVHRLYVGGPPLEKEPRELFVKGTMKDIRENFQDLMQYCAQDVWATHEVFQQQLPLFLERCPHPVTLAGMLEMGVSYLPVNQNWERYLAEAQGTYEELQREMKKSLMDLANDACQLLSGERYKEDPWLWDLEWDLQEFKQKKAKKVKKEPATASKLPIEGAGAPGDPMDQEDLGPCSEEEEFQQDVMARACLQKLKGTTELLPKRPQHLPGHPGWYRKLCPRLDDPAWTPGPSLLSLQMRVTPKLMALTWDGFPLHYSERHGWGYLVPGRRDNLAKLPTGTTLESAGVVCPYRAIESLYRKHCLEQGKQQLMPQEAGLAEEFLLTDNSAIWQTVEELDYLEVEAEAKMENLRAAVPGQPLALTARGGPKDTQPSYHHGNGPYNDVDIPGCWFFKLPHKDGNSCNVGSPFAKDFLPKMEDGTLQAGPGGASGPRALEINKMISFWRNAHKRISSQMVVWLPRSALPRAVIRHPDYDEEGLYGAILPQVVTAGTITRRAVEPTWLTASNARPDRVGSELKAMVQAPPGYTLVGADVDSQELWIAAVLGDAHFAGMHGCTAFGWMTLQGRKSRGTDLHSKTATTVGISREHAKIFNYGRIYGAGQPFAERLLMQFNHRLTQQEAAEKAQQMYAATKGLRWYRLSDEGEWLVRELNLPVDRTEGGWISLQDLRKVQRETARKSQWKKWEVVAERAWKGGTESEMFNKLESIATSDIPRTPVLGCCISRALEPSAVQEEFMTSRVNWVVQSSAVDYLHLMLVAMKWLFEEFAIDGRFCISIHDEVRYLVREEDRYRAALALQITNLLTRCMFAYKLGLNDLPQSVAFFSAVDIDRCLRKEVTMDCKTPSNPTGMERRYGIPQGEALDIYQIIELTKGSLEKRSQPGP

HIV = settings: specificity versus HBV
HBV = HBV patients, two and four week courses

| SMILES | effect on lactic acid production [1] | effect on mitochondrial DNA synthesis [1] | morphological changes in HepG2 cells (uninfected HepG2 cells; treated at up to 100 μM) | substrate activity for polymerase γ (polymerase γ) | activity against HIV (HIV) | lactic acid production (hepatoma cell lines) | IC50 (uninfected HepG2 cells) [µM] | suppression of serum HBV DNA levels (HBV) [%] | patients who died from hepatic failure (of the 7 patients with delayed hepatotoxicity, trial with 15 patients) | patients with delayed hepatotoxicity (prolonged treatment trial with 15 patients) [patients] |
| --- | --- | --- | --- | --- | --- | --- | --- | --- | --- | --- |
| Nc1ncnc2c1ncn2[C@@H]1C[C@@H](O)[C@H](CO)O1 [L-dAdo, 2′-deoxy-β-L-adenosine] | no effect | no effect | no morphological changes | little, if any | not HIV | – | – | – | – | – |
| Cc1cn([C@H]2O[C@@H](CO)[C@H](O)[C@H]2F)c(=O)[nH]c1=O [L-FMAU] | – | – | – | – | – | no significant | – | – | – | – |
| Cc1cn([C@@H]2C[C@@H](O)[C@H](CO)O2)c(=O)[nH]c1=O [L-dThd, 2′-Deoxy-β-L-thymidine] | no effect | no effect | – | little, if any | not HIV | – | > 200 | – | – | – |
| O=c1[nH]c(=O)n([C@@H]2O[C@H](CO)[C@@H](O)[C@@H]2F)cc1I [FIAU] | – | – | – | – | – | – | – | ≤ 95 | 5 | 7 |
| Nc1ccn([C@@H]2C[C@@H](O)[C@H](CO)O2)c(=O)n1 [L-dCyd, 2′-deoxy-β-L-cytidine] | no effect | no effect | – | little, if any | not HIV | – | > 200 | – | – | – |
